Measurements: patent US9421173B2, “Nano delivery systems for siRNA” (YISSUM RESEARCH DEVELOPMENT COMPANY OF THE HEBREW …, priority 2011, dated 2016)

How the values were obtained:
Assay type in all cases: physicochemical
[1] = Integrity evaluation of free siRNA exposed to pH 7, 8, 9 with or without glutaraldehyde (HPLC, PAGE 8%); conditions: for integrity of free siRNA in the presence of the cross linker (glutaraldehyde): 3 hr, all the pH tested (7, 8, 9), 'heavy' specie runs slower at the gel
Experimental: FIGS. 16A-16B are gel retardation assays (PAGE 8%) for evaluation of free siRNA integrity after exposure to different conditions. Integrity evaluation was made for GFP-siRNA (FIG. 16A) and Chol-GFP-siRNA (FIG. 16B). Lane No. 1—ladder, Lane No. 2, 3—controls with 100 and 50 ng of untreated siRNA respectively. Lanes 4, 6 and 8, with siRNA exposed to pH 7, 8 and 9, respectively. Lanes 5, 7 and 9, with siRNA exposed to pH 7, 8 and 9 in the presence of glutaraldehyde (0.014% (v/v)), respectively.
(§1) For siRNA integrity (stability) evaluation 8% (19:1) native polyacrylamide gels (PAGE) was used. Electrophoresis was carried out at 200V for 50 min, in Tris-Borate-EDTE (TBE) as running buffer. For siRNA staining, 0.01% of EtBr was used. Gels were visualized under a UV transilluminator.
During the primal encapsulation process of siRNA in the HSA NSs it has been exposed to materials with distractive potential such as basic pH conditions and the presence of cross linker (glutaraldehyde) who can interact with the primal amine present in the nucleic bases: Guanine, Adenine or Cytosine. Hens, the need in siRNA integrity evaluation arise. First, integrity evaluation of the free siRNA (GFP-siRNA and Chol-GFP-siRNA) was made. The siRNAs were exposed to the same conditions used for production of crosslinked HSA NSs (3 hr at aqueous solutions with pH of 7, 8 or 9 with or without the presence of glutaraldehyde), then a fraction from each sample was analyzed using HPLC (data not shown) and gel retardation assay (PAGE 8%) (FIG. 16).

[2] = Melting point measurements for siRNAs (UV 260 nm); conditions: buffer 48 mM Tris, 96 mM NaCl, pH 7.1
Experimental: Melting point measurements for different siRNAs (21-mer) used were performed on a UV-visible spectrophotometer (Cary 300) at 260 nm, by elevating the sample temperature from 20° C. to 85° C. at rate of 1° C./min. All siRNAs were dissolved in buffer (48 mM Tris, 96 mM NaCl, pH 7.1) to obtain a concentration of 4-10 ng/μl.
The temperature at which the 50% of siRNA strands are denatured is called the melting temperature, or Tm. The Tm for various siRNAs (21 mers) used in our research, was measured and found to be: 78, 77 and 72° C. for GFP-siRNA, Chol-GFP-siRNA and EGFR-siRNA, respectively. With all examined siRNAs, beginning of separation was already observed at 60° C. (data not shown).

[3] = Encapsulation efficacy of siRNA in crosslinked HSA NSs (Trypsin digestion, RP-HPLC); conditions: 200 μg siRNA
Experimental: For encapsulation of siRNA inside crosslinked HSA NSs, siRNA was added to HSA solution prior the addition of desolvating phase. The rest of procedure was made exactly in the same manner detailed above, when instead of using DDW, RNAse free water (RNFW) was used. After crosslinking, the NSs were washed and the total ultrafiltrate was collected, lyophilized and reconstituted with 500 μl RNFW, from which, 160 ul were injected to HPLC. Since partial degradation of free siRNA in the ultrafiltrate was observed, the preferred way to determine siRNA content in the NSs is to directly determine siRNA content in the particle (after its digestion), and not based on the free siRNA (un-encapsulated) in the ultrafiltrate.
The total weight of HSA per 100 μl of suspension (after wash) was quantified gravimetrically. Then 1-2 mg of washed HSA NPs encapsulating siRNA was diluted to 1 ml with RNase free PBS buffer (adjusted to pH=7.5 using 0.5 M NaOH solution) and digested with 20 to 150 μg Trypsin for 60, 90 or 180 min, at dark and under mild shaking at 37° C., till a clear solution was formed. In case sample containing DOTAP, Heparin (90 μg) was added to the aqueous phase, 0 or 60 min after the addition of Trypsin. The free siRNA quantity was determined using RP-HPLC, in the presence of Trypsin or without it.
In order to determine the encapsulation efficacy of siRNA in the crosslinked HSA NSs, the washed NSs were digested with Trypsin till a clear solution was formed and the total siRNA content was detected using RP-HPLC and calculated based on AUC. According to the protocol we have developed in our lab (for detailing see section E), the reliability of such method in quantification the released siRNA, is highly efficient (FIGS. 5-6). A few trends can be concluded; In the presence of DOTAP, the best encapsulation (˜40%) accepted at the low basic pH (pH 8 and 7). At pH 9, removal of the DOTAP from NSs, have reduced encapsulation efficacies. This effect is more pronounced when the non cholesterol modified siRNA (GFP-siRNA) is used.

[4] = Integrity evaluation of siRNA extracted from crosslinked HSA NSs and from NCs (HPLC, PAGE 8%); conditions: compared with untreated siRNA
Experimental: FIGS. 17A-17B are gel retardation assays (PAGE 8%) for evaluation of extracted siRNA. Integrity evaluation was made for GFP-siRNA (FIG. 17A) and Chol-GFP-siRNA (FIG. 17B). Lane No. 1—ladder, Lane No. 2—control with 100 ng of untreated siRNA. Lanes 3-8 with siRNA extracted from primal crosslinked HSA NSs (produced in different pH conditions), Lanes 9 and 10, with siRNA extracted from NCs loaded with the primal crosslinked HSA.
as §1
Later, siRNAs were extracted from the primal crosslinked HSA NSs (produced in different pH conditions), and their integrity was assessed using HPLC (data not shown) and gel retardation assay (PAGE 8%) (FIG. 17). Furthermore, the stability of siRNAs extracted from NCs loaded with the primal crosslinked HSA was also examined ([…]—lanes No. 9 & 10), since secondary encapsulation process performed under heat (Tin is 50° C.), using the nano spray drying technique. […] Based on the HPLC results, the exact amount of encapsulated siRNA was determined. […]

## GFP-siRNA: Anti Green Fluorescent Protein siRNA, 21 bp, MW 14,352 Da, SEQ ID NO: 5 and 6, provided by Roche (chain 1 AUAUCAUGGCCGACAAGCATT; chain 2 UGCUUGUCGGCCAUGAUAUTT; chemistry not fully specified)
[1]
  integrity of free siRNA in the presence of the cross linker (glutaraldehyde): highly sensitive
[2]
  melting temperature, or Tm (50% of siRNA strands denatured): 78 °C
[3]; pH 7, with 0.03 mg DOTAP
  % encapsulation: 43%
  Encapsulated is RNA: 86 µg
[3]; pH 8, with 0.03 mg DOTAP
  % encapsulation: 42%
  Encapsulated is RNA: 84 µg
[3]; pH 9, with 0.03 mg DOTAP
  % encapsulation: 24%
  Encapsulated is RNA: 48 µg
[3]; pH 9, without DOTAP
  % encapsulation: 9%
  Encapsulated is RNA: 18 µg
[4]
  integrity of siRNA encapsulated in the primal HSA NSs or secondary NCs: stayed intact

## EGFR-siRNA: Anti Epidermal Growth Factor Receptor siRNA, 21 bp, MW 13,400 Da, SEQ ID NO: 1 and 2, purchased from Ambion (chain 1 CCAUAAAUGCUACGAAUAUTT; chain 2 AUAUUCGUAGCAUUUAUGGAG; a few LNA modifications, positions not given here, lowercase DNA)
[2]
  melting temperature, or Tm (50% of siRNA strands denatured): 72 °C

## Chol-GFP-siRNA: Cholesterol modified GFP-siRNA, 21 bp, MW 15,079 Da, SEQ ID NO: 7 and 8, provided by Roche (chain 1 AUAUCAUGGCCGACAAGCATT; chain 2 UGCUUGUCGGCCAUGAUAUTT; 5' cholesteryl, chemistry not fully specified)
[1]; 3 hr in aqueous solutions of pH 7, 8 or 9, without glutaraldehyde
  integrity of free siRNA at basic pH: improved resistant to basic pH (8 and 9) compared to GFP-siRNA
[1]
  integrity of free siRNA in the presence of the cross linker (glutaraldehyde): highly sensitive
[2]
  melting temperature, or Tm (50% of siRNA strands denatured): 77 °C
[3]; pH 7, with 0.03 mg DOTAP
  % encapsulation: 39%
  Encapsulated is RNA: 76 µg
[3]; pH 8, with 0.03 mg DOTAP
  % encapsulation: 40%
  Encapsulated is RNA: 80 µg
[3]; pH 9, with 0.03 mg DOTAP
  % encapsulation: 26%
  Encapsulated is RNA: 52 µg
[3]; pH 9, without DOTAP
  % encapsulation: 16%
  Encapsulated is RNA: 32 µg
[4]
  integrity of siRNA encapsulated in the primal HSA NSs or secondary NCs: stayed intact
